# Patent publication US5984868A, “Device for measuring an absorbed dose of gas by skin and method therefor” (Institute of Occupational Safety and Health, Council of …, priority 1998, dated 1999)
# Several values for one entry are separate records, joined by “and”; a condition that tells them apart may be missing. Identical values can stand only once.
# Experiments:
# [1] = 2-methoxy ethanol dose in the subject's exhalation; assay type: in vivo; settings: human, exhaled air, topical or ocular; of the total absorbed dose; read-out: 2-methoxy ethanol doses in the subject's exhalation, share of total absorbed dose
# Description: (§1) According, m5 can be justifiably ignored.
# [2] = Johanson et al, 1988; cited from earlier work
# skin [3] = assay: Absorbed dose of vapor by skin in exposure chamber (Embodiment 2, 25±1.5 ppm); settings: 25±1.5 ppm vapor
# Description: The test concentration of the hazardous gas is 25 ppm in compliance with the allowable limit set forth by OSHA. In light of the lack of an exposure chamber large enough to accommodate a human body in its entirety, a small exposure chamber was used to investigate the absorption of the hazardous gas by the skin of an arm. On the basis of the result of the hand, the absorption of the hazardous gas by the skin of the whole body was estimated. […] The hand and the arm of a worker are often exposed on the job and are therefore used as subjects of the investigation. It is also assumed that the gas absorption rate of the skin of a hand is about equal to the average value of the gas absorption rate of the skin of the whole body. […] As a result, an absorbed dose of 300 ppm by a hand is about corresponding to an absorbed dose of 15 ppm by a whole body (300 ppm*1,250 cm^2 /18,000 cm^2 * 0.75). […] The digital signals were then transmitted to a computer (Pentium 100). When the concentration signal of the hazardous gas contained in the exposure chamber received by the computer was lower than the lower limit of 23.5 ppm, an instruction was generated by the software program and transmitted to activate the automatic injection system to raise quickly the concentration up to the upper limit of 26.5 ppm. […] Throughout the experiment of the present invention, a series of injected doses of the hazardous gas were obtained. The sum of the injected doses was used to compute the absorbed dose of the hazardous gas by the skin.
# The rotation speeds of the two fans were adjusted to obtain desired wind velocities and flow streams by using an adjustable resistor. […] When the hand was extended into the exposure chamber, the contact portions of the hand and the exposure chamber were covered with two layers of aluminum foil in conjunction with a transparent plastic bag therebetween. In addition, the upper arm was banded with the 3M bandage to avert the gas leak. Located respectively in the front, the middle and the rear of the exposure chamber was a detector for monitoring the uniformity of the gas concentration distribution and the change in the gas concentration throughout the experiment.
# It must be noted here that m1 is equal to the post-calibration injection rate multiplied by the accumulated injection times. […] This implies that only m1 and m2 must be measured with precision.
# [4] = general statement, no test shown; cited from earlier work
# [5] = Absorbed dose of vapor by skin of an arm in feedback-controlled exposure chamber, six voluntary subjects (Embodiment 1, 300±10 ppm); assay type: in vivo, human; settings: human, topical or ocular, 300±10 ppm vapor; mean of six subjects; read-out: permeability constant, mean (converted)
# Method: (§2) The injection rate of the injection system was checked with a five-digit balance (Mettler model AT-201, Switzerland). 2-methoxy ethanol was continuously injected into a glass bottle, and six continuous injections were measured to obtain the average value and the coefficient of variation. Each continuous injection had 10 injection does. An average injection dose was obtained from the […] injection doses. The average dose of each ejection was then used as a computation base for checking the injection dose of the system. After each human experiment, the above weight calibration was used again to check the average injection dose of each ejection so as to obtain the relative percentage error of the average injection doses before and after the experiment. The flash evaporation chamber is a small glass chamber which is embraced by a heating strap and a temperature control device, as shown in FIG. 1. The flash evaporation chamber was used to accelerate the evaporation of the liquid 2-methoxy ethanol and to shorten the reaction time of the system. When the evaporation of the liquid was slower than the skin absorption rate, it will cause the injection system to continuously inject the 2-methoxy ethanol, and thus result in an excess absorption dose of the vapor by the skin of the human under test. The flash evaporation chamber of the present invention can avoid this problem by providing with the heating strap.
# (§3) The measurement of the absorbed dose of vapor by skin was carried out respectively with each of six voluntary subjects whose personal data are shown in the following Table 3:
# (§4) The method of the first embodiment is illustrated in FIG. 1 in which the arm of a subject is shown being put into an exposure chamber. The exposure chamber contains 2-methoxy ethanol having a concentration of 300±10 ppm, with the relative humidity and the temperature of the exposure chamber being respectively 80±2%, and 25±1° C. For details of the control of the first embodiment, please refer to the Preparatory Embodiments described above.
# as §1
# skin [6] = assay: as above; assay type: in vivo, human
# Method: as §2, §3, §4, §1
# [7] = 300±10 ppm vapor, 80±2% RH, 25±1° C., arm, individual subjects 1-6
# [8] = 300±10 ppm vapor, mean of six subjects
smiles,measurement,setting,value
COCCO [2-methoxy ethanol],dose excreted,[1],< 0.4%
same,distribution coefficient of the human blood relative to air,[2],"32,836"
same,m1 (accumulated doses added to the exposure chamber),skin [3],34.5 mg
same,m2 (doses captured by the condensation dehumidifier),skin [3],27.1 mg
same,m3 (gas residual left on the exposed arm),skin [3],0.04 mg
same,m5 (doses contained in the subject's exhalations),skin [3],trace
same,water solubility,[4],excellent
same,Papp,[5],3890 ×10⁻⁶ cm/s
same,m1 (accumulated doses added to stabilize the concentration in the exposure chamber),skin [6]; [7],430.00 mg and 296.88 mg and 172.46 mg and 285.11 mg and 350.67 mg and 394.56 mg
same,m2 (doses captured by the condensation dehumidifier),skin [6]; [7],328.50 mg and 222.75 mg and 137.75 mg and 210.00 mg and 301.00 mg and 304.75 mg
same,m3 (gas residual left on the exposed arm after termination of exposure),skin [6]; [7],0.35 mg and 0.58 mg and 0.66 mg and 0.63 mg and 0.16 mg
same,permeability constant,skin [6]; [7],5575 ×10⁻⁶ cm/s and 4600 ×10⁻⁶ cm/s and 1650 ×10⁻⁶ cm/s and 4508 ×10⁻⁶ cm/s and 2540 ×10⁻⁶ cm/s and 4469 ×10⁻⁶ cm/s
same,skin absorption rate,skin [6]; [7],18.72 μg/cm^2 /h and 15.45 μg/cm^2 /h and 5.55 μg/cm^2 /h and 15.14 μg/cm^2 /h and 8.52 μg/cm^2 /h and 15.01 μg/cm^2 /h
same,"Δm (absorbed dose by skin, m1-m2-m3-m4)",skin [6]; [7],96.11 mg and 68.51 mg and 29.01 mg and 69.44 mg and 44.04 mg and 84.61 mg
same,"skin absorption rate, mean",skin [6]; [8],13.07 μg/cm^2 /h
same,"Δm (absorbed dose by skin), mean",skin [6]; [8],65.29 mg
same,"m3 and m4, respectively, relative to the dose of m1",skin [6]; of the dose of m1,less than 1%
